Source: US6531509B2, “Stable gabapentin containing more than 20 ppm of chlorine ion” (Teva Pharmaceutical Industries Ltd., priority 2000, dated 2003)

Columns and labels:
cardiozole cramp = conditions: in animals; cited from earlier work
[1] = Long-term storage stability of purified gabapentin (lactam formation, HPLC vs. standard); type: physicochemical; conditions: purified bulk gabapentin
Description: Gabapentin purified according to these procedures contains less than 0.5% lactam as measured by HPLC vs. standard.

[2] = according to Augart; cited from earlier work

Structure (SMILES) | effect against cardiozole cramp (cardiozole cramp) | amount of lactam after storage ([1]; a year of storage at 25° C. and 50% relative humidity) | conversion of gabapentin to its corresponding lactam ([1]; a year of storage at 25° C. and 60% relative humidity) | amount of lactam after storage ([1]; a year of storage at 55° C. and 50% relative humidity) | toxicity relative to gabapentin [2]
NCC1(CC(=O)O)CCCCC1 [Gabapentin, 1-(aminomethyl)-1-cyclohexaneacetic acid] | protective effect against cardiozole cramp | less than 0.5 % by weight | ≤ 0.2 % by weight of gabapentin | less than 0.5 % by weight | –
O=C1CC2(CCCCC2)CN1 [lactam] | – | – | – | – | higher toxicity than gabapentin
